Assay results: publication PMC8286840, “Identifying SARS-CoV-2 antiviral compounds by screening for small molecule inhibitors of Nsp3 papain-like protease” (Biochemical Journal, 2021)
Where a name gives a salt, the structure may show the parent alone. Read-outs that look alike come from different tables or passages of the source.

Legend:
[1] = target: T1, SARS-CoV-2 PLpro (nsp3 1564–1878) (Severe acute respiratory syndrome coronavirus 2, UniProt P0DTD1); test: biochemical; design: FRET-quenched peptide (Pro3) cleavage by PLpro, 10 min pre-incubation, slope over 20 min, normalised to no-compound control; settings: read-out: % of control remaining
[2] = target: T1, SARS-CoV-2 PLpro (nsp3 1564–1878); test: biochemical; design: FRET-quenched peptide (Pro3) cleavage by PLpro, 10 min pre-incubation, slope over 20 min, normalised to no-compound control; settings: read-out: % of control remaining; remark: listed apart in the source

NC/C=C/C(=O)O [(E)-4-amino-2-butenoic acid]
remaining activity at 3.75 µM ([1]; Well no.=1283, high concentration screen): 101% | remaining activity at 1.25 µM ([2]; Well no.=1283, low concentration screen): 103%

CN1CCC(=C2c3ccccc3CCc3cccnc32)CC1 [Azatadine dimaleate]
remaining activity at 3.75 µM ([1]; Well no.=5036, high concentration screen): 102% | remaining activity at 1.25 µM ([2]; Well no.=5036, low concentration screen): 99%

CN1Cc2c(N)cccc2C(c2ccccc2)C1 (centres unmarked) [Nomifensine (maleate)]
remaining activity at 3.75 µM ([1]; Well no.=8395, high concentration screen): 95.9% | remaining activity at 1.25 µM ([2]; Well no.=8395, low concentration screen): 97.9%

C=C1/C(=C\C=C2/CCC[C@]3(C)[C@@H]([C@H](C)CCCC(C)C)CC[C@@H]23)C[C@@H](O)C[C@@H]1O [Alfacalcidol]
remaining activity at 3.75 µM ([1]; Well no.=1854, high concentration screen): 99.8% | remaining activity at 1.25 µM ([2]; Well no.=1854, low concentration screen): 96.4%

COC(=O)CCc1ccc(OCC(O)CNC(C)C)cc1 (centres unmarked) [Esmolol]
remaining activity at 3.75 µM ([1]; Well no.=2286, high concentration screen): 96.8% | remaining activity at 1.25 µM ([2]; Well no.=2286, low concentration screen): 96.3%

O=C1NC(c2cccc([N+](=O)[O-])c2)=CCN1c1ccccc1O [Icilin]
remaining activity at 3.75 µM ([1]; Well no.=5682, high concentration screen): 83.5% | remaining activity at 1.25 µM ([2]; Well no.=5682, low concentration screen): 83.3%

Cc1cccc(-c2[nH]c(C(C)(C)C)nc2-c2ccc3c(c2)OCO3)n1 [SB-505124]
remaining activity at 3.75 µM ([1]; Well no.=4814, high concentration screen): 95.6% | remaining activity at 1.25 µM ([2]; Well no.=4814, low concentration screen): 101%

C[C@@H](Oc1cc(-c2cnn(C3CCNCC3)c2)cnc1N)c1c(Cl)ccc(F)c1Cl [Crizotinib]
remaining activity at 3.75 µM ([1]; Well no.=5612, high concentration screen): 101% | remaining activity at 1.25 µM ([2]; Well no.=5612, low concentration screen): 99.8%

CCCNC[C@H](O)COc1ccccc1C(=O)CCc1ccccc1 [(S)-(-)-propafenone hydrochloride]
remaining activity at 3.75 µM ([1]; Well no.=1451, high concentration screen): 93.6% | remaining activity at 1.25 µM ([2]; Well no.=1451, low concentration screen): 96.2%

O=C(c1ccc(F)cc1)C1CCN(CCn2c(=O)[nH]c3ccccc3c2=O)CC1 [Ketanserin]
remaining activity at 3.75 µM ([1]; Well no.=2106, high concentration screen): 95.2% | remaining activity at 3.75 µM ([1]; Well no.=6859, high concentration screen): 99% | remaining activity at 1.25 µM ([2]; Well no.=2106, low concentration screen): 94.1% | remaining activity at 1.25 µM ([2]; Well no.=6859, low concentration screen): 101%

C[C@H]1CC[C@@H]2N(C1)C[C@H]1[C@@H]3C[C@H]4[C@@H](CC(=O)[C@H]5C[C@@H](O)CC[C@@]54C)[C@@H]3CC[C@H]1[C@]2(C)O [Imperialine]
remaining activity at 3.75 µM ([1]; Well no.=3155, high concentration screen): 101% | remaining activity at 1.25 µM ([2]; Well no.=3155, low concentration screen): 93.8%

C[C@H](CS)C(=O)N1CCC[C@H]1C(=O)O [Captopril]
remaining activity at 3.75 µM ([1]; Well no.=318, high concentration screen): 97% | remaining activity at 3.75 µM ([1]; Well no.=1915, high concentration screen): 100% | remaining activity at 3.75 µM ([1]; Well no.=4135, high concentration screen): 98% | remaining activity at 3.75 µM ([1]; Well no.=7412, high concentration screen): 106% | remaining activity at 1.25 µM ([2]; Well no.=318, low concentration screen): 93.1% | remaining activity at 1.25 µM ([2]; Well no.=1915, low concentration screen): 97.2% | remaining activity at 1.25 µM ([2]; Well no.=4135, low concentration screen): 101% | remaining activity at 1.25 µM ([2]; Well no.=7412, low concentration screen): 105%

COC(=O)N[C@H](C(=O)N[C@@H](Cc1ccccc1)[C@@H](O)CN(Cc1ccc(-c2ccccn2)cc1)NC(=O)[C@@H](NC(=O)OC)C(C)(C)C)C(C)(C)C [Atazanavir sulfate]
remaining activity at 3.75 µM ([1]; Well no.=5245, high concentration screen): 101% | remaining activity at 1.25 µM ([2]; Well no.=5245, low concentration screen): 96.5%

CC(C)C[C@H](NC(=O)CNC(=O)[C@H](Cc1ccc(O)cc1)NC(=O)[C@H](CO)NC(=O)[C@H](Cc1c[nH]c2ccccc12)NC(=O)[C@H](Cc1cnc[nH]1)NC(=O)[C@@H]1CCC(=O)N1)C(=O)N[C@@H](CCCNC(=N)N)C(=O)N1CCC[C@H]1C(=O)NCC(N)=O [Gonadorelin (acetate)]
remaining activity at 3.75 µM ([1]; Well no.=6276, high concentration screen): 106% | remaining activity at 1.25 µM ([2]; Well no.=6276, low concentration screen): 104%

CC(=O)OC[C@@]1(O)CC23CC[C@@H]4c5ccoc5C=C[C@@]4(C)[C@@H]2CC[C@@H]1C3 [Kahweol Acetate]
remaining activity at 3.75 µM ([1]; Well no.=3489, high concentration screen): 103% | remaining activity at 1.25 µM ([2]; Well no.=3489, low concentration screen): 102%

CCOC(=O)[C@@H](N)Cc1ccc(-c2cc(O[C@H](c3ccc(Cl)cc3-n3ccc(C)n3)C(F)(F)F)nc(N)n2)cc1 [Telotristat Etiprate (LX 1606 Hippurate)]
remaining activity at 3.75 µM ([1]; Well no.=8288, high concentration screen): 92.1% | remaining activity at 1.25 µM ([2]; Well no.=8288, low concentration screen): 92.6%

NC(=O)C1CCCc2c1[nH]c1ccc(Cl)cc21 (centres unmarked) [EX 527]
remaining activity at 3.75 µM ([1]; Well no.=5287, high concentration screen): 97.8% | remaining activity at 1.25 µM ([2]; Well no.=5287, low concentration screen): 99%

O=c1cc(-c2ccc(O)c(O[C@@H]3O[C@H](CO)[C@@H](O)[C@H](O)[C@H]3O)c2)oc2cc(O[C@@H]3O[C@H](CO)[C@@H](O)[C@H](O)[C@H]3O)cc(O)c12 [Luteolin-3',7-diglucoside]
remaining activity at 3.75 µM ([1]; Well no.=3309, high concentration screen): 95.6% | remaining activity at 1.25 µM ([2]; Well no.=3309, low concentration screen): 97.1%

CN1C(=O)C(Cc2ccc3ccccc3c2)N=C(c2ccc(O)cc2)c2cc(Cl)ccc21 (centres unmarked) [Bz 423]
remaining activity at 3.75 µM [1]: 93.6% | remaining activity at 1.25 µM [2]: 96.5%

CN1CCC(C(=O)c2cccc(NC(=O)c3c(F)cc(F)cc3F)n2)CC1 [Lasmiditan (hydrochloride)]
remaining activity at 3.75 µM ([1]; Well no.=8055, high concentration screen): 98.4% | remaining activity at 1.25 µM ([2]; Well no.=8055, low concentration screen): 97%

CCCN1CCO[C@@H]2c3cc(O)ccc3OC[C@H]21 [S(+)-PD 128,907 hydrochloride]
remaining activity at 3.75 µM ([1]; Well no.=1265, high concentration screen): 104% | remaining activity at 1.25 µM ([2]; Well no.=1265, low concentration screen): 102%

CCN(C(=O)c1c(O)c2c(Cl)cccc2n(C)c1=O)c1ccccc1 [Laquinimod (ABR-215062)]
remaining activity at 3.75 µM ([1]; Well no.=4745, high concentration screen): 107% | remaining activity at 1.25 µM ([2]; Well no.=4745, low concentration screen): 105%

COCC(=O)O[C@]1(CCN(C)CCCc2nc3ccccc3[nH]2)CCc2cc(F)ccc2[C@@H]1C(C)C [Mibefradil dihydrochloride]
remaining activity at 3.75 µM ([1]; Well no.=882, high concentration screen): 91.3% | remaining activity at 1.25 µM ([2]; Well no.=882, low concentration screen): 99.7%

CC(C)CC(N)=O [Isovaleramide]
remaining activity at 3.75 µM ([1]; Well no.=8346, high concentration screen): 81.6% | remaining activity at 1.25 µM ([2]; Well no.=8346, low concentration screen): 89.1%

Cc1nc(NC(=O)N2CCC[C@H]2C(N)=O)sc1-c1ccnc(C(C)(C)C(F)(F)F)c1 [BYL719]
remaining activity at 3.75 µM ([1]; Well no.=5163, high concentration screen): 104% | remaining activity at 1.25 µM ([2]; Well no.=5163, low concentration screen): 102%

CC1COc2c(N3CCN(C)CC3)c(F)cc3c(=O)c(C(=O)O)cn1c23 (centres unmarked) [Ofloxacin]
remaining activity at 3.75 µM ([1]; Well no.=898, high concentration screen): 105% | remaining activity at 3.75 µM ([1]; Well no.=2047, high concentration screen): 104% | remaining activity at 1.25 µM ([2]; Well no.=898, low concentration screen): 106% | remaining activity at 1.25 µM ([2]; Well no.=2047, low concentration screen): 104%

O=C(NNC(=O)c1ccc(CNS(=O)(=O)c2ccc(F)c(Cl)c2)cc1)c1ccccc1 [TCN-201]
remaining activity at 3.75 µM ([1]; Well no.=5514, high concentration screen): 97.4% | remaining activity at 1.25 µM ([2]; Well no.=5514, low concentration screen): 96.4%

O=C(NCC1CCCCN1)c1cc(OCC(F)(F)F)ccc1OCC(F)(F)F (centres unmarked) [Flecainide acetate]
remaining activity at 3.75 µM ([1]; Well no.=709, high concentration screen): 98.3% | remaining activity at 3.75 µM ([1]; Well no.=1649, high concentration screen): 101% | remaining activity at 1.25 µM ([2]; Well no.=709, low concentration screen): 98.5% | remaining activity at 1.25 µM ([2]; Well no.=1649, low concentration screen): 101%

N=C(N)N/N=C/c1c(Cl)cccc1Cl [Guanabenz]
remaining activity at 3.75 µM ([1]; Well no.=1693, high concentration screen): 105% | remaining activity at 1.25 µM ([2]; Well no.=1693, low concentration screen): 105%

COc1cc(NC(=O)c2ccccn2)ccc1Cl [VU0361737]
remaining activity at 3.75 µM ([1]; Well no.=7189, high concentration screen): 97.6% | remaining activity at 1.25 µM ([2]; Well no.=7189, low concentration screen): 99.9%

C=C[C@H]1CN2CC[C@H]1C[C@H]2[C@H](O)c1ccnc2ccccc12 [(-)-Cinchonidine]
remaining activity at 3.75 µM ([1]; Well no.=3196, high concentration screen): 102% | remaining activity at 1.25 µM ([2]; Well no.=3196, low concentration screen): 101%
